# In PMC4521150, “Discovery of Novel Inhibitors and Fluorescent Probe Targeting NAMPT” (Scientific Reports, 2015):
# “Also recorded” adds a separate entry of the source. Where two headings read alike, the source gives them in different places.
# How the values were obtained:
# Huh-7 cell = experiment: Cell viability in Huh-7 cells; type: cell-based, human; conditions: Huh-7, Figure S2
# Source text: However, IC50 values for other 5 fluorescent compounds were able to be determined (Supplemental dataset S2). We then measured the fluorescence of all 9 fluorescent compounds at a series of different concentrations.
# HepG2 cells [1] = experiment: Live cell fluorescence imaging of compounds in HepG2 cells; type: cell-based, human; conditions: 3 μM
# Description: NAMPT knockdown in HepG2 cells was performed by transfection of NAMPT siRNA synthesized by Shanghai GenePharma Co., Ltd (Shanghai, China). The siRNA sequence targeting NAMPT corresponded to coding regions (5′-[…]-3′, 5′-[…]-3′) of the NAMPT gene. The nonspecific siRNA oligonucleotides (synthesized by Shanghai GenePharma Co., Ltd, Shanghai, China) were used as negative controls. 10 nM of NAMPT siRNA or nonspecific siRNA were transfected into HepG2 cells with Lipofectamine RNAiMax reagent (Invitrogen, CA, USA) according to the manufacturer’s instructions. After 24 or 48 hours, transfected cells were subjected to subsequent analysis.
# (§1) For imaging experiment, HepG2 cells or primary hepatocytes were seeded into 35-mm glass bottom dishes (In Vitro Scientific). The following day, compounds were added to the medium at a final concentration of 3 μM. After 30 minutes, cells were rinsed twice with PBS (pH 7.5), then incubated in fresh culture medium and imaged on a fluorescence microscope (IX-71, Olympus) with a digital camera (Olympus). After 4 hours, these cells were imaged once again. Digital images were recorded and analyzed using ImageJ.
# HepG2 NAD levels = experiment: Cellular NAD measurement (enzymatic cycling assay) in HepG2 cells; type: cell-based, human
# Description: Cellular level of NAD was measured by spectrophotometric enzymatic cycling assay, as described previously. Briefly, cells were seeded in 96-well plate and starved for over 12 h with serum-free DMEM at 60~70% confluency, following by treatment with compounds or vehicle for 24 h. Cells were lysed with 50 μl of 1M HClO4 on ice for 30 min. The lysates were cleared by centrifuging at 4 °C at 18,000 × g for 5 min, and cleared lysates (40 μl) were neutralized by adding 1M K2CO3 (16 μl) and incubation on ice for 20 min. After centrifuging for 10 min, 10 μl of supernatant were mixed with reaction buffer [50 mM Tris-HCl (pH 7.5), 3% ethanol, 1.66 mM PES (phenazineethosulfate), 0.42 mM MTT (3-(4,5-dimethylthiazolyl-2)-2,5-diphenyltetrazolium bromide), 90 μg/ml ADH] in a total volume of 100 ul, and incubated at 37 °C for 40 min. The absorbance at 570 nm was determined. A blank measurement without ADH was also carried out. Each experiment was carried out in triplicate in three replicate wells
# recombinant human NAMPT = target: T1, recombinant human NAMPT (Homo sapiens, UniProt P43490); experiment: NAMPT activity assay, IC50 determination (fluorometric detection of NMN derivative); conditions: molecular/biochemical assay, read-out: IC50 (NAMPT inhibition)
# T1 construct: His tag (N); made in house; host or cells: E. coli BL21-CodonPlus (DE3)-RIL, pET21a+ vector
# T1 sequence (P43490 whole entry): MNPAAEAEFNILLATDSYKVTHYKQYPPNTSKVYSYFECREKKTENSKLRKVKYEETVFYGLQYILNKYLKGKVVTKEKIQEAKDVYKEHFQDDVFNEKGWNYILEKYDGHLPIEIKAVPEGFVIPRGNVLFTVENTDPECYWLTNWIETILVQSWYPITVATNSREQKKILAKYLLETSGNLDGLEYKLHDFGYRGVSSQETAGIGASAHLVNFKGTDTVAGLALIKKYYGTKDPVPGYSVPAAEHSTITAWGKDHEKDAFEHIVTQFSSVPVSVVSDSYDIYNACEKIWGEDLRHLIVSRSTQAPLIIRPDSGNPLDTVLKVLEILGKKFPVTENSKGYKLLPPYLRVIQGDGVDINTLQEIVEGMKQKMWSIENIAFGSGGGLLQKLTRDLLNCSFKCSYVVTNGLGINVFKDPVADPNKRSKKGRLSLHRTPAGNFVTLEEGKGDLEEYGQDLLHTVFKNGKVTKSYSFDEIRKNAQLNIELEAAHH
# Source text: Using our previously established high throughput screening (HTS) platform and recombinant human NAMPT[14][15], we performed a HTS on a chemical library containing 30000 small-molecules (Chemdiv, CA, USA). Our HTS targeting NAMPT was developed based on a fluorometric method for NAMPT activity assay by measuring the fluorescence of nicotinamide mononucleotide (NMN) derivative resulting from the NAMPT enzymatic product NMN through simple chemical reactions (Fig. 1A). […] These fluorescent and non-fluorescent compounds were further studied separately.
# HTS was performed using our previously reported method. 0.5 μl stock of each compound (1 mM DMSO stock) was transferred to a 96-well PCR plate for screening. In the primary screening, 5 ng NAMPT in 20 μl reaction buffer [0.4 mM phosphoribosylpyrophosphate (PRPP, Sigma), 2 mM ATP, 0.02% BSA, 2 mM DTT, 12 mM MgCl2 and 50 mM Tris-HCl (pH = 7.5)] was added into each well, the plate was incubated at 37 °C for 5 min, then 4.5 μl substrate of NAM was added to initiate the enzyme reaction, resulting in a final concentration of 2% DMSO, 2 μg/ml NAMPT, 0.2 μM NAM and 20 μM compound. After reacting at 37 °C for 15 min, the enzyme reaction was terminated by heating at 95 °C for 1 min and cooling in an ice bath. The product of NMN was detected through the following approach: after adding 10 μl 20% acetophenone in DMSO and 10 μl 2 M KOH into each well, the mixture was vortex-mixed and kept in ice bath for 2 min. […] Finally, 85 μl mixtures in each well were transferred into a flat-bottom 96-well black plate (Greiner), and the fluorescence (F) was measured using a Tecan Infinity M200 plate reader (Tecan Group Ltd.) by setting the excitation and emission wavelength to 382 nm and 445 nm respectively. The last row of each 96-well plate includes six wells of background controls and six wells of reference controls. The relative enzyme activity (Activity%) regulated by specific compound was calculated according to equation (1): […]
# To determine the IC50 of inhibitors, 0.5 μl compound stocks with various concentrations were added into 96-well plate. The plate was incubated at 37 °C for 5 min after addition of 20 μl reaction buffer containing NAMPT. […] The IC50 values were determined by non-linear fitting of the concentration-dependent curves with the four-parameter IC50 logistic equation.
# HepG2 cells [2] = experiment: Cell viability assay (CCK-8) in HepG2 cells; type: cell-based, human; conditions: for IC50: HepG2, 48 h, CCK-8, read-out: IC50 for inhibitory effect on HepG2 cell viability
# Description: (§2) Cell viability was determined by our previous method[27] using the Cell Counting Kit-8 (CCK-8, Dojindo, Japan). In human hepatocellular carcinoma cell line HepG2, cells were seeded in 96-well plate and starved for over 12 h with serum-free DMEM at 60~70% confluency, then treated with compounds or vehicle for 48 h. To determine the IC50 values of inhibitors, compounds with various concentrations were added into the 96-well plate. 10 μl CCK-8 solution was added to the culture medium and incubated at 37 °C for 1 h. The absorbance at 450 nm (A450) was detected by a plate reader. Each experiment was carried out in triplicate in three replicate wells. The IC50 values were determined by non-linear fitting of the concentration-dependent curves with the four-parameter IC50 logistic equation.
# [3] = tested on: primary mouse hepatocytes; experiment: Live cell fluorescence imaging in primary mouse hepatocytes (wild type vs NAMPT over expression transgenic); type: cell-based; conditions: hepatocytes of NAMPT over expression transgenic vs wild type mice, 3 μM
# Description: (§3) Hepatocytes were isolated from mouse liver by the two-step collagenase perfusion method. […] For imaging experiment, 1 × 10^5 cells were plated in a 35-mm glass bottom dishes or 5 × 10^4 were plated in 48-well plate for cell viability assay in DMEM supplemented with 10% FBS and antibiotics, and kept under an atmosphere of 95% air and 5% CO2 at 37 °C.
# as §1
# [4] = tested on: primary mouse hepatocytes; experiment: Cell viability of primary hepatocytes from normal mice; type: cell-based; conditions: 30 μM
# Description: as §2, §3
smiles,measurement,setting,value
CCCn1c(=O)c(-c2ccc(C(=O)NCc3cccnc3)cc2)nc2ccccc21 [M049-0244],Effect on Huh-7 cell viability,Huh-7 cell,Inhibitory effects
same,Cellular fluorescence in living HepG2 cells,"HepG2 cells [1]; 30 minutes incubation, washed",fluorescence was obviously detected within the cell; also recorded: significantly stained living HepG2 cells
same,Cellular fluorescence after NAMPT knockdown (RNAi-NAMPT),"HepG2 cells [1]; HepG2, NAMPT siRNA vs nonspecific siRNA",significantly reduced the fluoresecence
same,Decrease of cellular NAD level,"HepG2 NAD levels; HepG2, 1 μM, 24 hours",~ 80%
same,IC50,"HepG2 NAD levels; Homo sapiens, HepG2, 24 hours treatment, read-out: IC50 for reducing NAD level",17.6 nM
same,IC50,recombinant human NAMPT,170 ± 12 nM
same,Rescue of cell viability by exogenous NMN,"HepG2 cells [2]; HepG2, 3 μM compound, NMN at 300 μM",totally rescued
same,IC50,HepG2 cells [2],~2000 nM
same,IC50,HepG2 cells [2]; Homo sapiens,1950 ± 170 nM
same,Effect on HepG2 cell viability at 1 and 10 μM,HepG2 cells [2]; two concentrations (1 and 10 μM),significant inhibition on HepG2 cell viability in a dose dependent manner
same,Cellular fluorescence intensity with NAMPT over expression,[3],increased the cellular fluorescence intensity
same,Inhibition of normal hepatocytes viability,[4],~ 20%
